Measured values published in patent US20050101595A1, “N-containing cycloalkyl-substituted amino-thiazole derivatives and pharmaceutical compositions for inhibiting cell proliferation and methods for their use” (PFIZER INC., priority 2003, published 2005).
Read-outs that look alike come from different tables or passages of the source.

Columns and labels:
CDK2/Cyclin A = CDK2/Cyclin A (Homo sapiens, UniProt P24941); assay: Inhibition of CDK2/Cyclin A Retinoblastoma Kinase Activity; type: biochemical; settings: for CDK2 % Inhibition At 0.03 μM: Table 2; for Ki: apparent Ki, CDK2/proteolyzed cyclin A, Rb fragment substrate, 25 μM ATP
In short: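 Percent inhibition is calculated against DMSO-only wells after subtracting no-enzyme background. The enzyme is human CDK2 complexed with proteolyzed cyclin A, used at 10 nM or 19 nM on an Rb fragment with 25 μM [32/33P]ATP, at pH 7.4 and 30° C.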

[1] = biological target: human CDK4 and genetically truncated (1-264) cyclin D3 (Homo sapiens, UniProt P11802); assay: Inhibition of CDK4/Cyclin D Retinoblastoma Kinase Activity; type: biochemical; settings: for Ki: apparent Ki, CDK4/truncated cyclin D3, Rb fragment substrate, 25 μM ATP
Chain of human CDK4 and genetically truncated (1-264) cyclin D3 (P11802 whole entry, the tested form may be a part): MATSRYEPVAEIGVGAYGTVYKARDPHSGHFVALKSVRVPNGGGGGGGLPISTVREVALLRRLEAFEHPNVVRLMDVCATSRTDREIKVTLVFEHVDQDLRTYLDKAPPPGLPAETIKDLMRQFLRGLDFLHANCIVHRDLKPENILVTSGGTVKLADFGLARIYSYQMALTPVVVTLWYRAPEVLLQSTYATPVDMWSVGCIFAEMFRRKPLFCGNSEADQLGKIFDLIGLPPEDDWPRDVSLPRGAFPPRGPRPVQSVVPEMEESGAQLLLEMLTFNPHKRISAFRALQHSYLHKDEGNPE
Chain of human CDK4 and genetically truncated (1-264) cyclin D3 (P30281 1-264 partner): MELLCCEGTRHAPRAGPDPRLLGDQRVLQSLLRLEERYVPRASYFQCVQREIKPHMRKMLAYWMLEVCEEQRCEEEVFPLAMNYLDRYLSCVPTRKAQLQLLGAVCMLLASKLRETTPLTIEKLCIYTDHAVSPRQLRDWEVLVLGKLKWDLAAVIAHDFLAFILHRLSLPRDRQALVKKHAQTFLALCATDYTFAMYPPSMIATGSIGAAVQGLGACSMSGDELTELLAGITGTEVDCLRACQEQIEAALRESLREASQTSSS
In short: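 Apparent Ki values derive from fitting activity at varied inhibitor concentrations to a competitive (or competitive tight-binding) model. Kinase reactions used 5 nM CDK4/cyclin D3(1-264), Rb fragment substrate and 25 μM ATP. Incubation ran 20 min at 30 °C, extended to 60 min under linear conditions for tight binders.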

HCT-116 cell line = assay: Inhibition of cell growth, tetrazolium salt (MTT) assay; type: cell-based; settings: for HCT-116 % Inhibition at 0.25 μM: 0.25 μM compound; for IC50: Homo sapiens, HCT-116, 120 h, MTT, three to five days, read-out: HCT-116 IC50
In short: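 First, cells were seeded in McCoy's 5A medium and held 4 h. Next, inhibitor concentrations in 0.5% (v/v) DMSO were applied for three to five days at 37° C, 5% CO2. Finally, after 4 h with 0.2 mg/mL MTT and medium removal, solubilized formazan was measured at 540 nm.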

[2] = 0.1 μM compound, HCT-116, Table 3

Row | Compound | CDK2 % Inhibition at 0.03 μM (CDK2/Cyclin A; at 0.03 μM) [%] | CDK4 % Inhibition at 0.03 μM ([1]; at 0.03 μM) [%] | HCT-116 % Inhibition at 0.1 μM (HCT-116 cell line; HCT-116 cells, at 0.1 μM) [%] | HCT-116 5 Inhibition at 0.25 μM (HCT-116 cell line; HCT-116 cells) | further results
1 | Nc1nc(NC2CCN(C(=O)c3cnc(Cl)c(Cl)c3)CC2)sc1C(=O)c1c(F)cccc1F [Example R30] | 31 | 63 | 13 | 43 | –
2 | Nc1nc(NC2CCN(C(=O)CCC3CCCC3)CC2)sc1C(=O)c1c(F)cccc1F [Example R97] | 13 | 17 | 0 | 39 | –
3 | COc1cccc(OC)c1C(=O)N1CCC(Nc2nc(N)c(C(=O)c3c(F)cccc3F)s2)CC1 [Example R118] | 36 | 33 | 7 | 47 | –
4 | CS(=O)(=O)c1ccc(S(=O)(=O)N2CCC(Nc3nc(N)c(C(=O)c4c(F)cccc4F)s3)CC2)cc1 [Example P80] | – | – | – | – | CDK2 % Inhibition at 0.03 μM (CDK2/Cyclin A; 0.03 μM compound, Table 3): 81%; CDK4 % Inhibition at 0.03 μM ([1]; 0.03 μM compound, Table 3): 73%; HCT-116 % Inhibition at 0.1 μM (HCT-116 cell line; [2]): 15%; HCT-116 % Inhibition at 0.25 μM (HCT-116 cell line; HCT-116, Table 3): 29%
5 | Cc1cc(C(=O)N2CCC(Nc3nc(N)c(C(=O)c4c(F)cccc4F)s3)CC2)n(C(C)(C)C)n1 [Example R59] | 16 | 25 | 4 | 47 | –
6 | COc1cc(Cl)ccc1C(=O)N1CCC(Nc2nc(N)c(C(=O)c3c(F)cccc3F)s2)CC1 [Example R145] | 45 | 53 | 0 | 38 | –
7 | CC(C)NC(=O)N1CCC(Nc2nc(N)c(C(=O)c3c(F)cccc3F)s2)CC1 [Example O29] | – | – | – | – | CDK2 % Inhibition At 0.03 μM (CDK2/Cyclin A; 0.03 μM compound): 30%; CDK4 % Inhibition at 0.03 μM ([1]; 0.03 μM compound, Table 2): 10%; HCT-116 % Inhibition at 0.25 μM (HCT-116 cell line; HCT-116, Table 2): 33%
8 | Nc1nc(NC2CCN(C(=O)OC3CCCC3)CC2)sc1C(=O)c1c(F)cccc1F [Example R87] | 17 | 28 | 0 | 36 | –
9 | Cc1ccc(S(=O)(=O)N2CCC(Nc3nc(N)c(C(=O)c4c(F)cccc4F)s3)CC2)cc1 [Example F15, {4-Amino-2-[1-(toluene-4-sulfonyl)-piperidin-4-ylamino]-thiazol-5-yl}-(2,6-difluoro-phenyl)-methanone] | – | – | – | – | Ki (CDK2/Cyclin A): 2.8 nM; Ki [1]: 3.4 nM; IC50 (HCT-116 cell line; first HCT-116 column (c4)): 410 nM; IC50 (HCT-116 cell line; second HCT-116 column (c5)): 1200 nM
10 | CCCCCOc1ccc(C(=O)N2CCC(Nc3nc(N)c(C(=O)c4c(F)cccc4F)s3)CC2)cc1 [Example R14] | 19 | 49 | 0 | 46 | –
11 | CN(C)c1cccc(C(=O)N2CCC(Nc3nc(N)c(C(=O)c4c(F)cccc4F)s3)CC2)c1 [Example R135] | 27 | 50 | 0 | 38 | –
12 | Cc1ccccc1NC(=O)N1CCC(Nc2nc(N)c(C(=O)c3c(F)cccc3F)s2)CC1 [Example O11] | – | – | – | – | CDK2 % Inhibition At 0.03 μM (CDK2/Cyclin A; 0.03 μM compound): 35%; CDK4 % Inhibition at 0.03 μM ([1]; 0.03 μM compound, Table 2): 6%; HCT-116 % Inhibition at 0.25 μM (HCT-116 cell line; HCT-116, Table 2): 0%
13 | Nc1nc(NC2CCN(S(=O)(=O)CCCN3CCCCC3)CC2)sc1C(=O)c1c(F)cccc1F [Example K7, 1-(4-Amino-2-{1-[3-(piperidin-1-yl)propane-1-sulfonyl]-piperidin-4-ylamino}-thiazol-5-yl)-1-(2,6-difluoro-phenyl)-methanone.] | – | – | – | – | Ki (CDK2/Cyclin A): 2 nM; Ki [1]: 2.9 nM; IC50 (HCT-116 cell line; first HCT-116 column (c4)): 210 nM; IC50 (HCT-116 cell line; second HCT-116 column (c5)): 1700 nM
14 | CCCCS(=O)(=O)N1CCC(Nc2nc(N)c(C(=O)c3c(F)cccc3F)s2)CC1 [Example P27] | – | – | – | – | CDK2 % Inhibition at 0.03 μM (CDK2/Cyclin A; 0.03 μM compound, Table 3): 16%; CDK4 % Inhibition at 0.03 μM ([1]; 0.03 μM compound, Table 3): 41%; HCT-116 % Inhibition at 0.1 μM (HCT-116 cell line; [2]): 4%; HCT-116 % Inhibition at 0.25 μM (HCT-116 cell line; HCT-116, Table 3): 23%
15 | Nc1nc(NC2CCN(S(=O)(=O)CCCN3CCc4ccccc4C3)CC2)sc1C(=O)c1c(F)cccc1F [Example K5, 1-(4-Amino-2-{1-[3-(3,4-dihydro-1H-isoquinolin-2-yl)propane-1-sulfonyl]-piperidin-4-ylamino}-thiazol-5-yl)-1-(2,6-difluoro-phenyl)-methanone.] | – | – | – | – | Ki (CDK2/Cyclin A): 1 nM; Ki [1]: 1.5 nM; IC50 (HCT-116 cell line; first HCT-116 column (c4)): 140 nM; IC50 (HCT-116 cell line; second HCT-116 column (c5)): 580 nM
